Like-named read-outs stand apart in the source and are kept apart here.
System: HIV-1 (H9/IIB strain)
Test: Multiple Round HIV-1 Infection Assay (Viking Assay) in MT4-GFP cells
Assay type: cell-based
Details: inhibition of reproductive ratio R0
Procedure: Assessing antiviral potency in a Multiple Round HIV-1 Infection Assay (Viking Assay) The antiviral activity of the tenofovir prodrugs of the Examples herein was assessed in an assay that measures the rate of replication of HIV in cell culture, termed the Viking assay (VIral KINetics in Green cells) and performed as follows. HIV-1 replication was monitored using MT4-gag-GFP clone D3 (hereafter designated MT4-GFP), which are MT-4 cells modified to harbor a GFP reporter gene, the expression of which is dependent on the HIV-1 expressed proteins tat and rev. Productive infection of an MT4-GFP cell with HIV-1 results in GFP expression approximately 24 h post-infection. MT4-GFP cells were maintained at 37° C./5% CO2/90% relative humidity in RPMI 1640 supplemented with 10/o fetal bovine serum, 100 U/ml penicillin/streptomycin, and 400 μg/ml G418 to maintain the reporter gene. For infections, MT4-GFP cells were placed in the same medium lacking G418 and infected overnight with HIV-1 (H9/IIB strain) virus at an approximate multiplicity of infection of 0.01 in the same incubation conditions. Cells were then washed and re-suspended in either RPMI 1640 supplemented with 10% or 50% normal human serum (NHS) at 1.6×10^5 cells/mL (10% NHS or 50% NHS, respectively). Compound plates were prepared by dispensing compounds dissolved in DMSO into wells of 384 well poly-D-lysine-coated plates (0.2 μl/well) using an ECHO acoustic dispenser. Each compound was tested in a 10-point serial 3-fold dilution (typical final concentrations: 8.4 μM-0.42 nM). Controls included no inhibitor (DMSO only) and a combination of three antiviral agents (efavirenz, indinavir, an in-house integrase strand transfer inhibitor at final concentrations of 4 μM each). Cells were added (50 μL/well) to compound plates and the infected cells were maintained at 37° C./5% CO2/90% relative humidity.
Infected cells were quantified at two time points, ˜48 h and ˜72 h post-infection, by counting the number of green cells in each well using an Acumen eX3 scanner. The increase in the number of green cells over ˜24 h period gives the reproductive ratio, R0, which is typically 5-15 and has been shown experimentally to be in logarithmic phase (data not shown). Inhibition of R0 is calculated for each well, and IC50s determined by non-linear 4-parameter curve fitting.

[1] = MT4-GFP cells infected with HIV-1, 10% normal human serum, read-out: Viking, IC50 (10% NHS)
[2] = MT4-GFP cells infected with HIV-1, 50% normal human serum, read-out: Viking, IC50 (50% NHS)

| Structure (SMILES) | IC50 [1] [nM] | IC50 [2] [nM] |
| --- | --- | --- |
| CCCOC(=O)C(C)(C)NP(=O)(CO[C@H](C)Cn1cnc2c(N)ncnc21)N[C@@H](C)c1ccc(Cl)cc1 (stereo partly drawn) [Example 13B, propyl 2-(((R)-((((R)-1-(6-amino-9H-purin-9-yl)propan-2-yl)oxy)methyl)(((S)-1-(4-chlorophenyl)ethyl)amino)phosphoryl)ami-no)-2-methylpropanoate and propyl 2-(((S)-((((R)-1-(6-amino-9H-purin-9-yl)propan-2-yl)oxy)methyl)(((S)-1-(4-chlorophenyl)ethyl)amino)phosphoryl)ami-no)-2-methylpropanoate] | 73 | 310 |
| CCCOC(=O)C(C)(C)N[P@@](=O)(CO[C@H](C)Cn1cnc2c(N)ncnc21)N[C@@H](C)c1ccc(OC)cc1 [Example 14A, propyl 2-(((R)-((((R)-1-(6-amino-9H-purin-9-yl)propan-2-yl)oxy)methyl)(((S)-1-(4-methoxyphenyl)ethyl)amino)phosphoryl)a-mino)-2-methylpropanoate and propyl 2-(((S)-((((R)-1-(6-amino-9H-purin-9-yl)propan-2-yl)oxy)methyl)(((S)-1-(4-methoxyphenyl)ethyl)amino)phosphoryl)a-mino)-2-methylpropanoate] | 25 | 140 |
| CCCOC(=O)C(C)(C)N[P@@](=O)(CO[C@H](C)Cn1cnc2c(N)ncnc21)N[C@@H](C)c1ccc(OC)cc1 [Example 14B, propyl 2-(((R)-((((R)-1-(6-amino-9H-purin-9-yl)propan-2-yl)oxy)methyl)(((S)-1-(4-methoxyphenyl)ethyl)amino)phosphoryl)a-mino)-2-methylpropanoate and propyl 2-(((S)-((((R)-1-(6-amino-9H-purin-9-yl)propan-2-yl)oxy)methyl)(((S)-1-(4-methoxyphenyl)ethyl)amino)phosphoryl)a-mino)-2-methylpropanoate] | 52 | 280 |
| CCCOC(=O)C(C)(C)N[P@@](=O)(CO[C@H](C)Cn1cnc2c(N)ncnc21)N[C@H](C)c1ccc(OC)cc1 [Example 15A, propyl 2-(((R)-((((R)-1-(6-amino-9H-purin-9-yl)propan-2-yl)oxy)methyl)(((R)-1-(4-methoxyphenyl)ethyl)amino)phosphoryl)a-mino)-2-methylpropanoate and propyl 2-(((S)-((((R)-1-(6-amino-9H-purin-9-yl)propan-2-yl)oxy)methyl)(((R)-1-(4-methoxyphenyl)ethyl)amino)phosphoryl)a-mino)-2-methylpropanoate] | 74 | 410 |
| CCCOC(=O)C(C)(C)N[P@@](=O)(CO[C@H](C)Cn1cnc2c(N)ncnc21)N[C@H](C)c1ccc(OC)cc1 [Example 15B, propyl 2-(((R)-((((R)-1-(6-amino-9H-purin-9-yl)propan-2-yl)oxy)methyl)(((R)-1-(4-methoxyphenyl)ethyl)amino)phosphoryl)a-mino)-2-methylpropanoate and propyl 2-(((S)-((((R)-1-(6-amino-9H-purin-9-yl)propan-2-yl)oxy)methyl)(((R)-1-(4-methoxyphenyl)ethyl)amino)phosphoryl)a-mino)-2-methylpropanoate] | 7.4 | 40 |
| CCCOC(=O)C(C)(C)N[P@@](=O)(CO[C@H](C)Cn1cnc2c(N)ncnc21)N[C@@H](C)c1ccccc1OC [Example 17A, propyl 2-(((R)-((((R)-1-(6-amino-9H-purin-9-yl)propan-2-yl)oxy)methyl)(((S)-1-(2-methoxyphenyl)ethyl)amino)phosphoryl)a-mino)-2-methylpropanoate and propyl 2-(((S)-((((R)-1-(6-amino-9H-purin-9-yl)propan-2-yl)oxy)methyl)(((S)-1-(2-methoxyphenyl)ethyl)amino)phosphoryl)a-mino)-2-methylpropanoate] | 24 | 310 |
| CCCOC(=O)C(C)(C)N[P@@](=O)(CO[C@H](C)Cn1cnc2c(N)ncnc21)N[C@@H](C)c1ccccc1OC [Example 17B, propyl 2-(((R)-((((R)-1-(6-amino-9H-purin-9-yl)propan-2-yl)oxy)methyl)(((S)-1-(2-methoxyphenyl)ethyl)amino)phosphoryl)a-mino)-2-methylpropanoate and propyl 2-(((S)-((((R)-1-(6-amino-9H-purin-9-yl)propan-2-yl)oxy)methyl)(((S)-1-(2-methoxyphenyl)ethyl)amino)phosphoryl)a-mino)-2-methylpropanoate] | 84 | 510 |
| CCCOC(=O)C(C)(C)NP(=O)(CO[C@H](C)Cn1cnc2c(N)ncnc21)N[C@@H](C)c1ccc(OC(F)(F)F)cc1 (stereo partly drawn) [Example 19B, propyl 2-(((R)-((((R)-1-(6-amino-9H-purin-9-yl)propan-2-yl)oxy)methyl)(((S)-1-(4-(trifluoromethoxy)phenyl)ethyl)amino)phos-phoryl)amino)-2-methylpropanoate and propyl 2-(((S)-((((R)-1-(6-amino-9H-purin-9-yl)propan-2-yl)oxy)methyl)(((S)-1-(4-(trifluoromethoxy)phenyl)ethyl)amino)phos-phoryl)amino)-2-methylpropanoate] | 84 | 360 |
| CCCOC(=O)C(C)(C)NP(=O)(CO[C@H](C)Cn1cnc2c(N)ncnc21)N[C@H](C)c1ccccc1OC (stereo partly drawn) [Example 20A, propyl 2-(((R)-((((R)-1-(6-amino-9H-purin-9-yl)propan-2-yl)oxy)methyl)(((R)-1-(2-methoxyphenyl)ethyl)amino)phosphoryl)a-mino)-2-methylpropanoate and propyl 2-(((S)-((((R)-1-(6-amino-9H-purin-9-yl)propan-2-yl)oxy)methyl)(((R)-1-(2-methoxyphenyl)ethyl)amino)phosphoryl)a-mino)-2-methylpropanoate] | 61 | 590 |
| CCCOC(=O)C(C)(C)NP(=O)(CO[C@H](C)Cn1cnc2c(N)ncnc21)N[C@H](C)c1ccccc1OC (stereo partly drawn) [Example 20B, propyl 2-(((R)-((((R)-1-(6-amino-9H-purin-9-yl)propan-2-yl)oxy)methyl)(((R)-1-(2-methoxyphenyl)ethyl)amino)phosphoryl)a-mino)-2-methylpropanoate and propyl 2-(((S)-((((R)-1-(6-amino-9H-purin-9-yl)propan-2-yl)oxy)methyl)(((R)-1-(2-methoxyphenyl)ethyl)amino)phosphoryl)a-mino)-2-methylpropanoate] | 9.5 | 53 |
| CCCOC(=O)C(C)(C)NP(=O)(CO[C@H](C)Cn1cnc2c(N)ncnc21)N[C@H](C)c1ccc(OC(F)(F)F)cc1C (stereo partly drawn) [Example 21A, Propyl 2-(((R)-((((R)-1-(6-amino-9H-purin-9-yl)propan-2-yl)oxy)methyl)(((R)-1-(2-methyl-4-(trifluoromethoxy)phenyl)ethyl)amino)phos-phoryl)amino)-2-methylpropanoate and propyl 2-(((S)-((((R)-1-(6-amino-9H-purin-9-yl)propan-2-yl)oxy)methyl)(((R)-1-(2-methyl-4-(trifluoromethoxy)phenyl)ethyl)amino)phos-phoryl)amino)-2-methylpropanoate] | 150 | 800 |
| CCCOC(=O)C(C)(C)N[P@@](=O)(CO[C@H](C)Cn1cnc2c(N)ncnc21)N[C@H](c1cccc(F)c1)C(F)(F)F [Example 22A, propyl 2-(((R)-((((R)-1-(6-amino-9H-purin-9-yl)propan-2-yl)oxy)methyl)(((R)-2,2,2-trifluoro-1-(3-fluorophenyl)ethyl)amino)phosphoryl)ami-no)-2-methylpropanoate and propyl 2-(((S)-((((R)-1-(6-amino-9H-purin-9-yl)propan-2-yl)oxy)methyl)(((R)-2,2,2-trifluoro-1-(3-fluorophenyl)ethyl)amino)phosphoryl)ami-no)-2-methylpropanoate] | 8.1 | 74 |
| CCCOC(=O)C(C)(C)N[P@@](=O)(CO[C@H](C)Cn1cnc2c(N)ncnc21)N[C@H](c1cccc(F)c1)C(F)(F)F [Example 22B, propyl 2-(((R)-((((R)-1-(6-amino-9H-purin-9-yl)propan-2-yl)oxy)methyl)(((R)-2,2,2-trifluoro-1-(3-fluorophenyl)ethyl)amino)phosphoryl)ami-no)-2-methylpropanoate and propyl 2-(((S)-((((R)-1-(6-amino-9H-purin-9-yl)propan-2-yl)oxy)methyl)(((R)-2,2,2-trifluoro-1-(3-fluorophenyl)ethyl)amino)phosphoryl)ami-no)-2-methylpropanoate] | 42 | 330 |

From patent publication US11123355B2, “Antiviral benzyl-amine phosphodiamide compounds” (Merck Sharp & Dohme Corp., priority 2016, dated 2021)
